Measurements from ChEMBL document CHEMBL4665679, “Ocular Disease Therapeutics: Design and Delivery of Drugs for Diseases of the Eye” (J Med Chem, 2020).
In brackets after ≈: the same amount, converted by molar mass.

Key:
[1] = molecular target: T1, Nitric oxide synthase, inducible (Mus musculus, UniProt P29477); experiment: Inhibition of LPS/IFN-gamma induced NO-dependent iNOS activity in mouse RAW 264.7 cells incubated for 16 hrs by Griess reagent based assay; type: cell-based, RAW264.7
T1 sequence (P29477 whole entry): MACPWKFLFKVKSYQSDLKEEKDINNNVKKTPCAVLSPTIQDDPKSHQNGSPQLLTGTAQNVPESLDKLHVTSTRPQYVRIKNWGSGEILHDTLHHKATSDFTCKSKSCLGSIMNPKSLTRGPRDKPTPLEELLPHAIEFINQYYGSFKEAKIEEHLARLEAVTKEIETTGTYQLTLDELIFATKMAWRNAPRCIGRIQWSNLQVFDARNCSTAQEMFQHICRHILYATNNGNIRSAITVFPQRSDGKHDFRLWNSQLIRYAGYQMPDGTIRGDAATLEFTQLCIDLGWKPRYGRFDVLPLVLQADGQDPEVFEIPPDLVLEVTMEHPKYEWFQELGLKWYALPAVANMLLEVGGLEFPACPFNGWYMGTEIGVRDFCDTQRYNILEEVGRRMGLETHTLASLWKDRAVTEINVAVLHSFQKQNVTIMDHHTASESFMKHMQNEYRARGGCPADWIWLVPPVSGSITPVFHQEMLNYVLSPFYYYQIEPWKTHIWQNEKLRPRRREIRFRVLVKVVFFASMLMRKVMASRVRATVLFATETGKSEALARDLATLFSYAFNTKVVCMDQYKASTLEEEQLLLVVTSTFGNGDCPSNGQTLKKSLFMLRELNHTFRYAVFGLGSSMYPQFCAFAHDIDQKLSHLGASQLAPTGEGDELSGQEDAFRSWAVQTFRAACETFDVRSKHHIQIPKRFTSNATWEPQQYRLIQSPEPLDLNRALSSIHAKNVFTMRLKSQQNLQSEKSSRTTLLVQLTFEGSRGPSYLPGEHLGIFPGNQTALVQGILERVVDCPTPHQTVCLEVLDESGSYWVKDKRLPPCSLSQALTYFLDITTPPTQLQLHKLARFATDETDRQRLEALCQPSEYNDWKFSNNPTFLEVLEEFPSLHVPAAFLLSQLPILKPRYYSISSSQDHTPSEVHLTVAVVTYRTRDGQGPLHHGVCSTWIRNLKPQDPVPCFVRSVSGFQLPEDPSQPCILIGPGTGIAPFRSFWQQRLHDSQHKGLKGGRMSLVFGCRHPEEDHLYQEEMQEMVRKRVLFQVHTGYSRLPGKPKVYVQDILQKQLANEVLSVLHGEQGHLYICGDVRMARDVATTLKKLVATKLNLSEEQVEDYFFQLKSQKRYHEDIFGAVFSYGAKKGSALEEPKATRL

[2] = molecular target: T2, Complement factor D (Homo sapiens, UniProt P00746); experiment: Inhibition of CFD in 50% human whole blood assessed as reduction in alternate complement pathway-mediated MAC formation pre-incubated for 15 mins followed by zymosan suspension addition and measured after 40 mins by ELISA; type: tissue-based
T2 sequence (P00746 whole entry): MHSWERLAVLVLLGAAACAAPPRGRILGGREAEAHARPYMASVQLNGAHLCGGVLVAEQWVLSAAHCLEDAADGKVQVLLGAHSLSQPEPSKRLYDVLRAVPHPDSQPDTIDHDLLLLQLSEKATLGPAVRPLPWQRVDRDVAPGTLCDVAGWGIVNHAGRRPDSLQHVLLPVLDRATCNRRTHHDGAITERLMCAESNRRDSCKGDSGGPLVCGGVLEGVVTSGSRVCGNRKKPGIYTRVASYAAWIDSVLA

[3] = Reduction of intraocular pressure in human at 0.4%, OU administered twice daily for 8 weeks and measured every 4 weeks at 8 hrs post instillation during phase 2 clinical trial by tonometry; type: functional
[4] = Reduction of intraocular pressure in human at 0.4%, OU administered twice daily for 52 weeks and measured every 2 weeks for first month and then every 4 weeks by tonometry; type: functional
[5] = Reduction of intraocular pressure in human at 0.1%, OU administered twice daily for 8 weeks and measured every 4 weeks at 8 hrs post instillation during phase 2 clinical trial by tonometry; type: functional
[6] = Reduction of intraocular pressure in human at 0.4%, OU administered twice daily for 8 weeks cotreated with timolol and measured every 2 weeks by tonometry; type: functional
[7] = Reduction of intraocular pressure in human at 0.4%, OU administered twice daily for 8 weeks cotreated-with-latanoprost and measured every 2 weeks at 2 hrs post-instillation by tonometry; type: functional
[8] = Reduction of intraocular pressure in human at 0.4%, OU administered twice daily for 52 weeks and measured every 2 weeks for first month and then every 4 weeks at 2 hr post-instillation by tonometry; type: functional
[9] = Reduction of intraocular pressure in human at 0.2%, OU administered twice daily for 8 weeks and measured every 4 weeks at 8 hrs post instillation during phase 2 clinical trial by tonometry; type: functional
[10] = Reduction of intraocular pressure in human at 0.4%, OU administered twice daily for 8 weeks cotreated with timolol and measured every 2 weeks at 2 hrs post-instillation by tonometry; type: functional
[11] = Inhibition of N-terminal His-tagged human KLK7 (37 to 253 residues) Y180R mutant expressed in Escherichia coli BL21(DE3) using Ac-Glu-Phe-Lys-Pro-Ile-Leu-Trp-Arg-Leu-Gly-Cys(PT14)-Glu-NH2 as substrate preincubated for 1 hr followed by substrate addition by fluorescence-lifetime assay
[12] = molecular target: Complement C5 (Homo sapiens, UniProt P01031); experiment: Inhibition of C5 complement protein in 2% human serum incubated for 15 mins; type: cell-free
Chain of Complement C5 (P01031 19-673 limits assumed): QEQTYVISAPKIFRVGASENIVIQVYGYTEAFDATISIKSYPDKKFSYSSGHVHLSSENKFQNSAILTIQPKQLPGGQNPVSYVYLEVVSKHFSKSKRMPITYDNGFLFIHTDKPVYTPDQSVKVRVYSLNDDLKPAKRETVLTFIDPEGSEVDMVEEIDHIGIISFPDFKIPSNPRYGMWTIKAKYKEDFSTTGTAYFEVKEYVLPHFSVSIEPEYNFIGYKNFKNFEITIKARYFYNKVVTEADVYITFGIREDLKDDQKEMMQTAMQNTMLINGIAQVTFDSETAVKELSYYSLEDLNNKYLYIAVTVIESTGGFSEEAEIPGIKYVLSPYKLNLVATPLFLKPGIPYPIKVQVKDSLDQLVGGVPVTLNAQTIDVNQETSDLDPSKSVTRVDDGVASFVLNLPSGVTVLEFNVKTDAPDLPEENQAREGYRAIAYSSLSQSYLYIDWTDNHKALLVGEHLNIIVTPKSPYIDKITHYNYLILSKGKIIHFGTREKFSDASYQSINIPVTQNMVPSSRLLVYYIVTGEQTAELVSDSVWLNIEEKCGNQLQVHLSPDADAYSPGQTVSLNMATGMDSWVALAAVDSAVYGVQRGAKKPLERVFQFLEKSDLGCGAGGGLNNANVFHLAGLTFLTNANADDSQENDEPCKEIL
Chain of Complement C5 (P01031 678-1676 limits assumed): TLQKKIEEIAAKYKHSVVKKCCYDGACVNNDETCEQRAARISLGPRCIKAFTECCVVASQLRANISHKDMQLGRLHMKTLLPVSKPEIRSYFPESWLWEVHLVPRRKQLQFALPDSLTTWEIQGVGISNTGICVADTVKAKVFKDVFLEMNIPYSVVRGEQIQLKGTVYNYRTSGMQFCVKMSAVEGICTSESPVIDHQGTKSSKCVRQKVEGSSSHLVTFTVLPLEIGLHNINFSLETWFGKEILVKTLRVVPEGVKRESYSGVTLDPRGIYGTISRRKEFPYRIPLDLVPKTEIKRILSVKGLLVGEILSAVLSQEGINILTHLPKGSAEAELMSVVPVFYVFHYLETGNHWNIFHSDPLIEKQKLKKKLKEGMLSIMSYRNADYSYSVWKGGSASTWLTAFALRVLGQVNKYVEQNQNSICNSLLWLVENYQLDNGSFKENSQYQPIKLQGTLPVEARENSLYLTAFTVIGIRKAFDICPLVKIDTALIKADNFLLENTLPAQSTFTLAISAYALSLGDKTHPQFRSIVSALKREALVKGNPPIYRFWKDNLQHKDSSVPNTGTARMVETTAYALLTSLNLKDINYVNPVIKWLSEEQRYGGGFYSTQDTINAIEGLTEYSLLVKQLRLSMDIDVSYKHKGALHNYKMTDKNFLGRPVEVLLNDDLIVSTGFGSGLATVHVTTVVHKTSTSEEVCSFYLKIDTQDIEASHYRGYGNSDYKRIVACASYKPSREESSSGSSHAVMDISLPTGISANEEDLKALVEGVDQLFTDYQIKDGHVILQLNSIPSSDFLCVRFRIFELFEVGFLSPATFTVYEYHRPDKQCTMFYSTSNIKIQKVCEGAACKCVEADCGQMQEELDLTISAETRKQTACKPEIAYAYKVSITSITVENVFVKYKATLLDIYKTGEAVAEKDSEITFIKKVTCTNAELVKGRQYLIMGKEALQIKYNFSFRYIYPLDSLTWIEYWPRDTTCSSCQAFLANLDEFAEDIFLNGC

[13] = Equilibrium solubility in pH 6.8 potassium phosphate buffer incubated for 16 hrs by shake flask method; type: physicochemical
[14] = Solubility of compound by NMR analysis; type: physicochemical
[15] = tested on: Rattus norvegicus; experiment: Neuroprotective activity in Wistar rat model of streptozotocin-induced diabetic retinopathy assessed as decrease in retinal ganglion cells at 5 mg/kg, po dosed until 2 months starting 7 days prior to streptozotocin injection (reference value: 44%); type: functional; set-up: scale not given: the % may be the effect or the level left; settings: 1460 h
[16] = tested on: Rattus norvegicus; experiment: Neuroprotective activity in Wistar rat model of streptozotocin-induced diabetic retinopathy assessed as decrease in retinal ganglion cells at 1 mg/kg, po dosed until 2 months starting 7 days prior to streptozotocin injection (reference value: 44%); type: functional; set-up: scale not given: the % may be the effect or the level left; settings: 1460 h
[17] = molecular target: T2, Complement factor D; experiment: Inhibition of recombinant human CFD catalytic domain (G24 to A253 residues) expressed in Escherichia coli (Rosetta) using Z-Lys-thiobenzyl and 2,4-dinitrobenzenesulfonyl-2,7-[…]-fluorecein as substrate preincubated for 1 hr followed by substrate addition by spectrofluorimetric method
[18] = molecular target: T2, Complement factor D; experiment: Binding affinity to human CFD at 100 uM by WaterLOGSY NMR analysis
[19] = Reduction of intraocular pressure in human at 0.1% administered topically to the eye and measured at 4 hr post-instillation during phase 1 clinical trial by tonometry; type: functional
[20] = molecular target: T2, Complement factor D; experiment: Inhibition of CFD in human RBC model of anti-CD55/anti-CD59-induced paroxysmal nocturnal hemoglobinuria assessed as reduction in complement fragment C3 deposition by FACS analysis; type: tissue-based
[21] = Half life in human cornea by HPLC analysis; type: ADME, tissue-based
[22] = Half life in Dutch Belted rabbit cornea by HPLC analysis; type: ADME, tissue-based, Oryctolagus cuniculus; settings: in vivo
[23] = Half life in Beagle dog cornea by HPLC analysis; type: ADME, tissue-based, Canis lupus familiaris; settings: in vivo
[24] = Half life in pig cornea by HPLC analysis; type: ADME, tissue-based, Sus scrofa; settings: in vivo
[25] = Half life in cynomolgus monkey cornea by HPLC analysis; type: ADME, tissue-based, Macaca fascicularis; settings: in vivo
[26] = Reduction of intraocular pressure in human at 0.024%, OU administered once daily and measured at 8 am time point after 3 months by tonometry; type: functional; settings: 2190 h
[27] = Reduction of intraocular pressure in human at 0.024%, OU administered once daily and measured at 4 pm time point after 6 weeks by tonometry; type: functional
[28] = Reduction of intraocular pressure in human at 0.024% administered topically to eye once daily for 4 weeks and measured for 8 hrs during diurnal/wake period by tonometry; type: functional
[29] = Reduction of intraocular pressure in human at 0.024%, OU administered once daily and measured at 1 year by tonometry; type: functional; settings: 8760 h
[30] = Reduction of intraocular pressure in human at 0.024%, OU administered once daily and measured at 4 pm time point after 2 weeks by tonometry; type: functional
[31] = Reduction of intraocular pressure in human at 0.024%, OU administered to fellow-eye once daily for 14 days and measured for 24 hrs on day 14 by tonometry; type: functional; settings: time 14 day
[32] = Reduction of intraocular pressure in human at 0.024% administered topically to eye once daily and measured after 14 day during phase2 clinical trial by tonometry; type: functional
[33] = Reduction of intraocular pressure in human at 0.024%, OU administered once daily and measured at 12 pm time point after 6 weeks by tonometry; type: functional
[34] = Reduction of intraocular pressure in human at 0.024%, OU administered once daily and measured at 4 pm time point after 3 months by tonometry; type: functional; settings: 2190 h
[35] = Reduction of intraocular pressure in human at 0.024%, OU administered once daily and measured at 4 weeks by tonometry; type: functional
[36] = Reduction of intraocular pressure in human at 0.024%, OU administered once daily and measured at 12 pm time point after 3 months by tonometry; type: functional; settings: 2190 h
[37] = Reduction of intraocular pressure in human at 0.024% administered topically to eye once daily for 4 weeks and measured for 8 hrs during nocturnal/sleep period by tonometry; type: functional
[38] = Reduction of intraocular pressure in human at 0.024%, OU administered once daily and measured at 8 am time point after 2 weeks by tonometry; type: functional
[39] = Reduction of intraocular pressure in human at 0.024%, OU administered once daily for 14 days and measured for 24 hrs on day 14 by tonometry; type: functional; settings: time 14 day
[40] = Reduction of intraocular pressure in human at 0.024% administered topically to eye once daily and measured after 7 day during phase2 clinical trial by tonometry; type: functional
[41] = Reduction of intraocular pressure in human at 0.024%, OU administered once daily and measured at 12 pm time point after 2 weeks by tonometry; type: functional
[42] = Reduction of intraocular pressure in human at 0.024% administered topically to eye once daily and measured after 28 day during phase2 clinical trial by tonometry; type: functional
[43] = Reduction of intraocular pressure in human at 0.024%, OU administered once daily and measured at 8 am time point after 6 weeks by tonometry; type: functional

O=C(CCC/C=C\C[C@@H]1[C@@H](CC[C@@H](O)CCc2ccccc2)[C@H](O)C[C@@H]1O)OC(CO[N+](=O)[O-])CO[N+](=O)[O-]
IC50 [1]: 55000 nM

NC(=O)c1nn(CC(=O)N2[C@@H]3C[C@@H]3C[C@H]2C(=O)Nc2cccc(Br)n2)c2ncccc12
IC50 [2]: 50 nM

C[C@H]1CNCCCN1S(=O)(=O)c1cccc2cncc(F)c12
Activity [3]: -3.1 mmHg
Activity [4]: -2.6 mmHg
Activity [5]: -3.2 mmHg
Activity [6]: 0.9 mmHg
Activity [7]: 1.4 mmHg
Activity [8]: -3.7 mmHg
Activity [9]: -2.7 mmHg
Activity [10]: 1.6 mmHg

COC(=O)c1ccccc1CNC(=O)N1CCC[C@H]1C(=O)Nc1cccc(OC(F)(F)F)c1
IC50 [11]: 9000 nM

COc1ccc(NC(=O)N[C@@H](C)c2ccccc2)cc1OCCCC(C)C
IC50 [12]: 440 nM
solubility thermodynamic at 16 h [13]: < 4 µM

NC(=O)c1cc2cc(OCc3cccc(C(=O)O)c3)ccc2[nH]1
solubility [14]: 2000 µM (≈ 621 µg/mL)

OCCc1ccc(O)c(O)c1 [HYDROXYTYROSOL]
Activity [15]: 9%
Activity [16]: 34%

COc1ccc(CCNC(=O)[C@@H]2CCCN2C(=O)NCc2cccc3ccccc23)cc1
IC50 [11]: 700 nM
IC50 [17]: > 30000 nM

NC(=O)c1cc2cc(OCc3ccccc3)ccc2[nH]1
Kd [18]: > 30000 nM
solubility [14]: 30 µM (≈ 7.99 µg/mL)

CC(N)c1ccc(C(=O)Nc2ccnc3[nH]ccc23)cc1 (configuration not stated)
Activity [19]: 3 mmHg

C[C@H](NC(=O)[C@@H]1C[C@H]2C[C@H]2N1C(=O)Cn1nc(C(N)=O)c2cccnc21)c1cccc(Cl)c1F
IC50 [20]: 70 nM
IC50 [2]: 140 nM

CCCCCCOc1cc(NC(=O)N[C@@H](C)c2ccccc2)ccc1OC
IC50 [12]: 210 nM
solubility thermodynamic at 16 h [13]: < 4 µM

Cc1ccc(C(=O)OCc2ccc([C@@H](CN)C(=O)Nc3ccc4cnccc4c3)cc2)c(C)c1
t1/2 [21]: 2.92 h
t1/2 [22]: 2.33 h
t1/2 [23]: 1.63 h
t1/2 [24]: 2.6 h
t1/2 [25]: 1.82 h

COc1cc(C(=O)O)c(NC(=O)N[C@@H](C)c2ccccc2)cc1OCCCC(C)C
IC50 [12]: 620 nM
solubility thermodynamic at 16 h [13]: 728 µM (≈ 302 µg/mL)

O=C(CCC/C=C\C[C@@H]1[C@@H](CC[C@H](O)CCc2ccccc2)[C@H](O)C[C@@H]1O)OCCCCO[N+](=O)[O-]
Activity [26]: 0.9 mmHg
Activity [27]: 1 mmHg
Activity [28]: 1.1 mmHg
Activity [29]: 5.3 mmHg
Activity [30]: 0.7 mmHg
Activity [31]: 3.5 mmHg
Activity [32]: 8.9 mmHg
Activity [33]: 0.8 mmHg
Activity [34]: 1.3 mmHg
Activity [35]: 4.3 mmHg
Activity [36]: 1.3 mmHg
Activity [37]: 2.3 mmHg
Activity [38]: 0.4 mmHg
Activity [39]: 3.6 mmHg
Activity [40]: 8.3 mmHg
Activity [41]: 0.8 mmHg
Activity [42]: 9 mmHg
Activity [43]: 0.9 mmHg

COc1ccc(NC(=O)N[C@@H](C)c2ccccc2OC)cc1OCCCC(C)C
IC50 [12]: ≤ 5 nM
solubility thermodynamic at 16 h [13]: ≤ 4 µM
